Target: PARP7 (Homo sapiens (Human), UniProt Q7Z3E1)
Assay: Enzymatic assay for inhibition of PARP7: TR-FRET displacement of biotinylated Probe A from the TIPARP active site
Type: binding
Conditions: Table A-1
How it was run: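 Read-out: 665/615 nm emission ratio (ex 320 nm, 90 μs delay) indexing bound TIPARP–Probe A. Final incubation 30 min, 25° C; compounds in dose response. Curve fit of % inhibition vs concentration; Hill slope floating or fixed at 1 (3-parameter).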

Chain of PARP7 (Q7Z3E1 whole entry): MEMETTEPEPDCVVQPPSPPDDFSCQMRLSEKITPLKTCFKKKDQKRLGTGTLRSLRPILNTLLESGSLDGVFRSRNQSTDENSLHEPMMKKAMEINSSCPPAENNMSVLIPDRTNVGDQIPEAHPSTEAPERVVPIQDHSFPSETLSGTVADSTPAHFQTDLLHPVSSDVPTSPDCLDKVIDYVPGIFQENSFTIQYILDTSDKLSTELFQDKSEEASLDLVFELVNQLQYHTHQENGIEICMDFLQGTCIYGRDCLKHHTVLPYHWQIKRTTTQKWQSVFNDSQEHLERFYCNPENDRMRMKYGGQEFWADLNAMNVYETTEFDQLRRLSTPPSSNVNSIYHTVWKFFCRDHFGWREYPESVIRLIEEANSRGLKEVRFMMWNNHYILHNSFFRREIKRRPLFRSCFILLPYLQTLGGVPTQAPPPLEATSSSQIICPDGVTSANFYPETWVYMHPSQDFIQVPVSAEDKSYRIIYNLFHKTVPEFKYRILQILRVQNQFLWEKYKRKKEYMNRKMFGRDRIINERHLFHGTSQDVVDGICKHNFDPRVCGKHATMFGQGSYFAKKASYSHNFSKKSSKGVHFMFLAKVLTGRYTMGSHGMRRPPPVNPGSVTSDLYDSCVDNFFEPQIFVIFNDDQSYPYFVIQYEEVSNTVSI

| IC50 | Structure (SMILES) |
| --- | --- |
| 100 to 1000 nM | O=C(C[C@H]1CC[C@@H](COc2cn[nH]c(=O)c2Cl)O1)N1CCN(c2ncc(Cl)cn2)CC1 (single isomer, unassigned) [Example 566 Isomer C] |
| ≥ 1000 nM | CC1c2ccccc2CN1c1cn[nH]c(=O)c1Cl (centres unmarked) [Example 208, 4-Chloro-5-(1-methylisoindolin-2-yl)pyridazin-3(2H)-one] |
| < 100 nM | CO[C@@H](C)[C@@H](COCCC(=O)N1CCN(c2ncc(C(F)(F)F)cn2)CC1)Nc1cn[nH]c(=O)c1C(F)(F)F [Example 698, 5-(((2R,3S)-3-Methoxy-1-(3-oxo-3-(4-(5-(trifluoromethyl)pyrimidin-2-yl)piperazin-1-yl)propoxy)butan-2-yl)amino)-4-(trifluoromethyl)pyridazin-3(2H)-one] |
| ≥ 1000 nM | NCC1c2ccccc2CN1c1cn[nH]c(=O)c1Cl (centres unmarked) [Example 231, 5-(1-(Aminomethyl)isoindolin-2-yl)-4-chloropyridazin-3(2H)-one] |
| ≥ 1000 nM | O=C(CCOC[C@H](CC1CCNCC1)Nc1cn[nH]c(=O)c1C(F)(F)F)N1CCN(c2ncc(C(F)(F)F)cn2)CC1 [Example 648, (S)-5-((1-(3-Oxo-3-(4-(5-(trifluoromethyl)pyrimidin-2-yl)piperazin-1-yl)propoxy)-3-(piperidin-4-yl)propan-2-yl)amino)-4-(trifluoromethyl)pyridazin-3(2H)-one] |
| < 100 nM | Cc1ccc(N2CCN(C(=O)c3cccc(OCC4c5ccccc5CN4c4cn[nH]c(=O)c4C(F)(F)F)c3)CC2)nc1 (centres unmarked) [Example 403, 5-(1-((3-(4-(5-Methylpyridin-2-yl)piperazine-1-carbonyl)phenoxy)methyl)isoindolin-2-yl)-4-(trifluoromethyl)pyridazin-3(2H)-one] |
| < 100 nM | C[C@@H](COCCC(=O)N1CCN(c2ccc(CN)cn2)CC1)Oc1cn[nH]c(=O)c1C(F)(F)F [Example 673, (S)-5-((1-(3-(4-(5-(Aminomethyl)pyridin-2-yl)piperazin-1-yl)-3-oxopropoxy)propan-2-yl)oxy)-4-(trifluoromethyl)pyridazin-3(2H)-one] |
| 100 to 1000 nM | O=C(COC[C@@H]1CCCN1c1cn[nH]c(=O)c1C(F)(F)F)NC1CCC(Oc2ccccn2)CC1 (stereo partly drawn) [Example 83, 2-[[(2S)-1-[6-oxo-5-(trifluoromethyl)-1,6-dihydropyridazin-4-yl]pyrrolidin-2-yl]methoxy]-N-[4-(pyridin-2-yloxy)cyclohexyl]acetamide] |
| < 100 nM | N#Cc1ccc(N2CCN(C(=O)c3cccc(OC[C@@H]4C[C@H](C#N)CN4c4cn[nH]c(=O)c4C(F)(F)F)c3)CC2)nc1 [Example 452, 6-(4-(3-(((2S,4S)-4-Cyano-1-(6-oxo-5-(trifluoromethyl)-1,6-dihydropyridazin-4-yl)pyrrolidin-2-yl)methoxy)benzoyl)piperazin-1-yl)nicotinonitrile] |
| 100 to 1000 nM | C[C@H](COCCC(=O)N1CCN(c2ncc(Cl)cn2)CC1)Nc1cn[nH]c(=O)c1C(F)(F)F [Example 556, 5-[[(2R)-1-[3-[4-(5-Chloropyrimidin-2-yl)piperazin-1-yl]-3-oxopropoxy]propan-2-yl]amino]-4-(trifluoromethyl)-2,3-dihydropyridazin-3-one] |
| < 100 nM | O=C(CCOC[C@H](Nc1cn[nH]c(=O)c1C(F)(F)F)[C@@H]1CCOC1)N1CCN(c2ncc(C(F)(F)F)cn2)CC1 [Example 614 Isomer D, 5-(((R)-2-(3-Oxo-3-(4-(5-(trifluoromethyl)pyrimidin-2-yl)piperazin-1-yl)propoxy)-1-((S)-tetrahydrofuran-3-yl)ethyl)amino)-4-(trifluoromethyl)pyridazin-3(2H)-one] |
| < 100 nM | C[C@@H](COCCC(=O)N1CCN(c2ncc(C(F)(F)F)cn2)CC1)Sc1cn[nH]c(=O)c1Cl [Example 701, (S)-4-Chloro-5-((1-(3-oxo-3-(4-(5-(trifluoromethyl)pyrimidin-2-yl)piperazin-1-yl)propoxy)propan-2-yl)thio)pyridazin-3(2H)-one] |
| 100 to 1000 nM | COC[C@H](COCCC(=O)N1CCN(c2ncc(C(F)(F)F)cn2)CC1)Sc1cn[nH]c(=O)c1C(F)(F)F (single isomer, unassigned) [Example 692] |
| < 100 nM | C[C@@H](CCOCCC(=O)N1CCN(c2ncc(C(F)(F)F)cn2)CC1)Nc1cn[nH]c(=O)c1C(F)(F)F [Example 640, (S)-5-((4-(3-Oxo-3-(4-(5-(trifluoromethyl)pyrimidin-2-yl)piperazin-1-yl)propoxy)butan-2-yl)amino)-4-(trifluoromethyl)pyridazin-3(2H)-one] |
| < 100 nM | CC(=O)N1CCN(C(=O)CCOC[C@@H]2c3ccccc3CN2c2cn[nH]c(=O)c2C(F)(F)F)CC1 [Example 419, (S)-5-(1-((3-(4-Acetylpiperazin-1-yl)-3-oxopropoxy)methyl)isoindolin-2-yl)-4-(trifluoromethyl)pyridazin-3(2H)-one] |
| < 100 nM | N#Cc1ccc(N2CCN(C(=O)CCCOCC3c4ncccc4CN3c3cn[nH]c(=O)c3C(F)(F)F)CC2)nc1 (centres unmarked) [Example 411, 6-(4-(4-((6-(6-Oxo-5-(trifluoromethyl)-1,6-dihydropyridazin-4-yl)-6,7-dihydro-5H-pyrrolo[3,4-b]pyridin-7-yl)methoxy)butanoyl)piperazin-1-yl)nicotinonitrile] |
| < 100 nM | O=C(CCOC[C@@H]1CCCN1c1cn[nH]c(=O)c1C(F)(F)F)N1CCN(c2ccc(C(F)(F)F)cn2)CC1 [Example 458, (S)-5-(2-((3-Oxo-3-(4-(5-(trifluoromethyl)pyridin-2-yl)piperazin-1-yl)propoxy)methyl)pyrrolidin-1-yl)-4-(trifluoromethyl)pyridazin-3(2H)-one] |
| < 100 nM | N#Cc1ccc(N2CCN(C(=O)COCCCOc3cn[nH]c(=O)c3C(F)(F)F)CC2)nc1 [Example 517, 6-(4-(2-(3-(6-Oxo-5-(trifluoromethyl)-1,6-dihydropyridazin-4-yloxy)propoxy)acetyl)piperazin-1-yl)nicotinonitrile] |
| < 100 nM | O=c1[nH]ncc(N2Cc3cccc(OC4CCCOC4)c3C2)c1C(F)(F)F (centres unmarked) [Example 268, 5-(4-((Tetrahydro-2H-pyran-3-yl)oxy)isoindolin-2-yl)-4-(trifluoromethyl)pyridazin-3(2H)-one] |
| < 100 nM | O=C(CCOCCOc1cn[nH]c(=O)c1C(F)(F)F)N1CCN(c2ccc(C(F)(F)F)cn2)CC1 [Example 536, 5-[2-(3-Oxo-3-[4-[5-(trifluoromethyl)pyridin-2-yl]piperazin-1-yl]propoxy)ethoxy]-4-(trifluoromethyl)-2,3-dihydroyridazin-3-one] |
| < 100 nM | O=c1[nH]ncc(N2Cc3cccc(Oc4ccncn4)c3C2)c1C(F)(F)F [Example 195, 5-(4-(Pyrimidin-4-yloxy)isoindolin-2-yl)-4-(trifluoromethyl)pyridazin-3(2H)-one] |
| < 100 nM | N#Cc1ccc(N2CCN(C(=O)C3CC(OC[C@@H]4CCCN4c4cn[nH]c(=O)c4C(F)(F)F)C3)CC2)nc1 (single isomer, unassigned; isomer a) [Example 95 Isomer A] |
| 100 to 1000 nM | N#Cc1ccc(N2CCN(C(=O)CCOC3Cc4ccccc4C3Oc3cn[nH]c(=O)c3C(F)(F)F)CC2)nc1 (centres unmarked) [Example 540, 6-(4-[3-[(1-[[6-Oxo-5-(trifluoromethyl)-1,6-dihydropyridazin-4-yl]oxy]-2,3-dihydro-1H-inden-2-yl)oxy]propanoyl]piperazin-1-yl)pyridine-3-carbonitrile] |
| < 100 nM | COc1ccc2c(c1)CN(c1cn[nH]c(=O)c1C(F)(F)F)C2 [Example 174, 5-(5-Methoxyisoindolin-2-yl)-4-(trifluoromethyl)pyridazin-3(2H)-one] |
| < 100 nM | CC(C)(COC[C@@H]1CCCN1c1cn[nH]c(=O)c1C(F)(F)F)CC(=O)N1CCN(c2ccc(C#N)cn2)CC1 [Example 118, 6-[4-(3,3-dimethyl-4-[[(2S)-1-[6-oxo-5-(trifluoromethyl)-1,6-dihydropyridazin-4-yl]pyrrolidin-2-yl]methoxy]butanoyl)piperazin-1-yl]pyridine-3-carbonitrile] |
| < 100 nM | N#Cc1ccc(N2CCN(C(=O)C#CCOC[C@@H]3CCCN3c3cn[nH]c(=O)c3C(F)(F)F)CC2)nc1 [Example 119, 6-[4-(4-[[(2S)-1-[6-oxo-5-(trifluoromethyl)-1,6-dihydropyridazin-4-yl]pyrrolidin-2-yl]methoxy]but-2-ynoyl)piperazin-1-yl]pyridine-3-carbonitrile] |
| < 100 nM | O=c1[nH]ncc(N2Cc3cccc(OC[C@@H]4CCCO4)c3C2)c1C(F)(F)F (single isomer, unassigned) [Example 222] |
| < 100 nM | O=C(c1cccc(OC[C@@H]2c3ccccc3CN2c2cn[nH]c(=O)c2C(F)(F)F)c1)N1CCN(c2ccc(C(F)(F)F)cn2)CC1 (single isomer, unassigned) [Example 30 Isomer B] |
| 100 to 1000 nM | N#Cc1ccc(N2CCN(C(=O)N3CC[C@@H](OC[C@@H]4CCCN4c4cn[nH]c(=O)c4C(F)(F)F)C3)CC2)nc1 [Example 129A, 6-[4-[(3R)-3-[[(2S)-1-[6-oxo-5-(trifluoromethyl)-1,6-dihydropyridazin-4-yl]pyrrolidin-2-yl]methoxy]pyrrolidine-1-carbonyl]piperazin-1-yl]pyridine-3-carbonitrile] |
| < 100 nM | O=C(CCOC[C@H](Cc1ccncc1)Nc1cn[nH]c(=O)c1C(F)(F)F)N1CCN(c2ncc(C(F)(F)F)cn2)CC1 [Example 647, (S)-5-((1-(3-Oxo-3-(4-(5-(trifluoromethyl)pyrimidin-2-yl)piperazin-1-yl)propoxy)-3-(pyridin-4-yl)propan-2-yl)amino)-4-(trifluoromethyl)pyridazin-3(2H)-one] |

| Structure (SMILES) | IC50 |
| --- | --- |
| O=c1[nH]ncc(N2Cc3cccc(OC4CCNCC4)c3C2)c1C1CC1 [Example 183, 4-Cyclopropyl-5-(4-(piperidin-4-yloxy)isoindolin-2-yl)pyridazin-3(2H)-one formic acid] | ≥ 1000 nM |
| N#Cc1ccc(N2CCN(C(=O)[C@H]3CC[C@@H](OC[C@@H]4CCCN4c4cn[nH]c(=O)c4C(F)(F)F)CC3)CC2)nc1 (single isomer, unassigned; isomer b) [Example 82 Isomer B] | 100 to 1000 nM |
